Assay results published in ChEMBL document CHEMBL3217528, “Bicyclic imidazole-4-one derivatives: a new class of antagonists for the orphan G protein-coupled receptors GPR18 and GPR55” (Medchemcomm, 2014).
pIC50, pKi: −log10 of the molar value.

Legend:
[1] = molecular target: T1, N-arachidonyl glycine receptor (Homo sapiens) (UniProt Q14330); assay: Agonist activity at human GPR18 expressed in CHO cells assessed as induction of beta-arrestin recruitment by beta-galactosidase enzyme fragment complementation method relative to delta9-THC; type: cell-based; design: concentration or dose not given beside the values
T1 sequence (whole entry): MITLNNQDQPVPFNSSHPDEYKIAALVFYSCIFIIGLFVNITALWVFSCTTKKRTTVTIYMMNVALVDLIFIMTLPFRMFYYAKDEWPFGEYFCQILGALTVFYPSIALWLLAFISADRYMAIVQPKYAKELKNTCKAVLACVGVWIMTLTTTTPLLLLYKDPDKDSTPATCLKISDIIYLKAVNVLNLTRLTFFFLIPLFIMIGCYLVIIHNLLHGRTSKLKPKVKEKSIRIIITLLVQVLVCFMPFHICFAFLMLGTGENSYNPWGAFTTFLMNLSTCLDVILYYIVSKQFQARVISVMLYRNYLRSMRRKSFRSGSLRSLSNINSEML

Cannabinoid receptor 2 [2] = molecular target: T2, Cannabinoid receptor 2 (Homo sapiens, UniProt P34972); assay: Displacement of [3H]CP55,940 from human recombinant CB2 receptor expressed in HEK293 cells; type: cell-based
T2 sequence (P34972 whole entry): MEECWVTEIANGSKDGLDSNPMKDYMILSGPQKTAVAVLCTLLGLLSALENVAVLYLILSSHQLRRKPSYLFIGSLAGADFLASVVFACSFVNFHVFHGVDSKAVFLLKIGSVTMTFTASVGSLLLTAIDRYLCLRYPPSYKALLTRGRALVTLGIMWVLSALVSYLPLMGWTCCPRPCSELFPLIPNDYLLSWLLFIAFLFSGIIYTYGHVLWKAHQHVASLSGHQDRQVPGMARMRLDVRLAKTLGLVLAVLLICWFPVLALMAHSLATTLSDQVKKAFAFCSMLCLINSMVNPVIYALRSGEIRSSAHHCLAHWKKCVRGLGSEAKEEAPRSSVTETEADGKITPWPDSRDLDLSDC

Cannabinoid receptor 1 [3] = molecular target: T3, Cannabinoid receptor 1 (Homo sapiens, UniProt P21554); assay: Displacement of [3H]CP55,940 from human recombinant CB1 receptor expressed in CHO-K1 cells; type: cell-based
T3 sequence (P21554 whole entry, the tested form may be a part): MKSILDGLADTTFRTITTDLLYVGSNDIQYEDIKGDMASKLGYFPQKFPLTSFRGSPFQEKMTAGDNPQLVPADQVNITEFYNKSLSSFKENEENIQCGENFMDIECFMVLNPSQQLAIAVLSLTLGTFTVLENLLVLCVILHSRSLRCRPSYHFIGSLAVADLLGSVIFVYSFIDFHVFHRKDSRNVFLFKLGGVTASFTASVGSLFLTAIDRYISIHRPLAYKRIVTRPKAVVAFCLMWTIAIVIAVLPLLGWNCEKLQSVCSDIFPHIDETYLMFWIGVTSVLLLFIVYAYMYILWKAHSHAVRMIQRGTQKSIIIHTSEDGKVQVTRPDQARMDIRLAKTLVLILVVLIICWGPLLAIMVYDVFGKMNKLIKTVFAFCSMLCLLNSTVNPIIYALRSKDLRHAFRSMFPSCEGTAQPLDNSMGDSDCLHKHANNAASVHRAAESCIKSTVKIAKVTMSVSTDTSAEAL

[4] = molecular target: T4, N-arachidonyl glycine receptor (Homo sapiens, UniProt Q14330); assay: Antagonist activity against human GPR18 expressed in CHO cells assessed as reduction in delta9-THC-induced beta-arrestin recruitment by beta-galactosidase enzyme fragment complementation method; type: cell-based
T4 sequence (Q14330 whole entry): T1 sequence (whole entry)

Cannabinoid receptor 2 [5] = molecular target: T2, Cannabinoid receptor 2; assay: Displacement of [3H]CP55,940 from human recombinant CB2 receptor expressed in HEK293 cells at 10 uM; type: cell-based
Cannabinoid receptor 1 [6] = molecular target: T3, Cannabinoid receptor 1; assay: Displacement of [3H]CP55,940 from human recombinant CB1 receptor expressed in CHO-K1 cells at 10 uM; type: cell-based
[7] = molecular target: T5, G-protein coupled receptor 55 (Homo sapiens, UniProt Q9Y2T6); assay: Antagonist activity against human GPR55 expressed in CHO cells assessed as reduction in LPI-induced beta-arrestin recruitment at 10 uM by beta-galactosidase enzyme fragment complementation method; type: cell-based
T5 sequence (Q9Y2T6 whole entry, the tested form may be a part): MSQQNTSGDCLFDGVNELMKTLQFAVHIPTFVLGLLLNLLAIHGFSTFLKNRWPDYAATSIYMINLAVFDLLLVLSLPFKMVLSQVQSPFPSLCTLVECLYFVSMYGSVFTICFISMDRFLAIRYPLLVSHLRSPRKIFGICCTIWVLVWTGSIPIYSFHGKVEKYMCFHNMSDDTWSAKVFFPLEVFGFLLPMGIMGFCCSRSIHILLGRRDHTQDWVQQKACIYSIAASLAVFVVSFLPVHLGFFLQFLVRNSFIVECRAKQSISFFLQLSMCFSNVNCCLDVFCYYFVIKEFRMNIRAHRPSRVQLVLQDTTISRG

Cannabinoid receptor 1 [8] = molecular target: Cannabinoid receptor 1 (Rattus norvegicus, UniProt P20272); assay: Displacement of [3H]CP55,940 from CB1 receptor in rat brain cortical membranes; type: cell membranes
Cannabinoid receptor 1 (Rattus norvegicus, UniProt P20272), sequence (P20272 whole entry, the tested form may be a part): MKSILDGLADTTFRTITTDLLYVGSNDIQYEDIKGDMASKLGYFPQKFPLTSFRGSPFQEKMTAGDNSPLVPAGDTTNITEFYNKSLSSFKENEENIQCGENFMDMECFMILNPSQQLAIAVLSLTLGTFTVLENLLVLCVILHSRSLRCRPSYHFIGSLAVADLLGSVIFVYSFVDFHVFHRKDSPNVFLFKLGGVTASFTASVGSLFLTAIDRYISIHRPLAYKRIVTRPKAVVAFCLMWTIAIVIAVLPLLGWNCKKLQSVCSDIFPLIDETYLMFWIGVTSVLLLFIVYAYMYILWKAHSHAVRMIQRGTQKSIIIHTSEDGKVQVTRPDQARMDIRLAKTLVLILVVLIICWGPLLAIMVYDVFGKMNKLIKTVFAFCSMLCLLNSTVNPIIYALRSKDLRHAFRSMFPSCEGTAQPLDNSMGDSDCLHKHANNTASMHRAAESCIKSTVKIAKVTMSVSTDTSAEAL

[9] = molecular target: T5, G-protein coupled receptor 55; assay: Agonist activity at human GPR55 expressed in CHO cells assessed as induction of LPI-induced beta-arrestin recruitment by beta-galactosidase enzyme fragment complementation method relative to LPI; type: cell-based; design: concentration or dose not given beside the values
[10] = molecular target: T1, N-arachidonyl glycine receptor (Homo sapiens); assay: Antagonist activity against human GPR18 expressed in CHO cells assessed as reduction in delta9-THC-induced beta-arrestin recruitment at 10 uM by beta-galactosidase enzyme fragment complementation method; type: cell-based
[11] = molecular target: Cannabinoid receptor 1 (Rattus norvegicus) (UniProt P20272); assay: Displacement of [3H]CP55,940 from CB1 receptor in rat brain cortical membranes at 10 uM; type: cell membranes
Cannabinoid receptor 1 (Rattus norvegicus), sequence (P20272 whole entry, the tested form may be a part): as above

[12] = molecular target: T5, G-protein coupled receptor 55; assay: Antagonist activity against human GPR55 expressed in CHO cells assessed as reduction in LPI-induced beta-arrestin recruitment by beta-galactosidase enzyme fragment complementation method; type: cell-based

SMILES | Activity [1] [%] | pKi (Cannabinoid receptor 2 [2]) | pKi (Cannabinoid receptor 1 [3]) | pIC50 [4] | inhibition (Cannabinoid receptor 2 [5]) [%] | inhibition (Cannabinoid receptor 1 [6]) [%] | inhibition [7] [%] | pKi (Cannabinoid receptor 1 [8]) | Activity [9] [%] | inhibition [10] [%] | inhibition [11] [%] | pIC50 [12]
O=C1N=C2SCCCN2C1(c1ccccc1)c1ccccc1 | 11 | < 5.00 | < 5.00 | < 5.00 | 9 | 13 | 2 | < 5.00 | 53 | 0 | 4 | < 5.00
O=C1/C(=C/c2cccc(OCc3ccccc3Cl)c2)N=C2SCCCN12 | 8 | < 5.00 | < 5.00 | 5.78 | 9 | 0 | 45 |  | 10 |  |  | ≤ 5.00
COc1ccccc1/C=C1\N=C2SCCCN2C1=O | 0 | < 5.00 | < 5.00 | < 5.00 | 27 | 4 | 33 | < 5.00 | 12 | 0 | 4 | < 5.00
O=C1N=C2SCCCN2/C1=C\C=C\c1ccccc1 | 9 | < 5.00 | < 5.00 | < 5.00 | 19 | 26 | 0 | < 5.00 | 59 | 2 |  | < 5.00
O=C1/C(=C/c2ccccc2F)N=C2SCCCN12 | 6 | < 5.00 | < 5.00 | < 5.00 | 0 | 13 |  |  | 0 | 17 |  | 5.25
Cc1ccc(C(=O)Oc2cccc(/C=C3\N=C4SCCCCN4C3=O)c2)cc1 | 0 | 5.59 | < 5.00 | 5.19 |  | 35 | 32 | < 5.00 | 25 |  | 4 | < 5.00
CN(C)c1ccc(/C=C2\N=C3SCCCN3C2=O)cc1 | 17 | 4.78 | < 5.00 | < 5.00 |  | 29 | 13 | < 5.00 | 20 | 13 | 6 | < 5.00
O=C1/C(=C/c2cccc(OCc3ccc(Cl)c(Cl)c3)c2)N=C2SCCCN12 | 0 | < 5.00 | < 5.00 | 5.21 | 0 | 15 |  | < 5.00 | 4 |  |  | 4.93
O=C1/C(=C/C=C/c2ccccc2)N=C2SCCCN12 | 7 | < 5.00 | < 5.00 | < 5.00 | 37 | 16 | 27 | < 5.00 | 29 | 0 | 18 | < 5.00
O=C1/C(=C/c2ccc(-c3ccccc3)cc2)N=C2SCCCCN12 | 6 | 5.27 | < 5.00 | < 5.00 |  | -5 | 0 | < 5.00 | 30 | 37 | 0 | < 5.00
CC(C)c1ccc(/C=C2\N=C3SCCCN3C2=O)cc1 | 0 | < 5.00 | < 5.00 | < 5.00 | 17 | 12 | 38 | < 5.00 | 13 | 4 | 6 | < 5.00
CCCCC/C=C\C/C=C\C/C=C\C/C=C\CCCC(=O)NCC(=O)O [ARACHIDONOYL GLYCINE] |  | < 5.00 | < 5.00 | < 5.00 | 36 | 43 | 6 |  |  | 0 |  | < 5.00
